Measurements taken from paper PMC10313921, “A living ex vivo platform for functional, personalized brain cancer diagnosis” (Cell Reports Medicine, 2023).

Tests used:
Assay type in all cases: cell-based, human
[1] = test system: MB231Br (breast cancer metastasis to brain); experiment: Drug screening of MB231Br tumor foci on OBSCs
[2] = test system: LN229 (established GBM line); experiment: Drug screening of LN229 tumor foci on OBSCs
Outline: (§1)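 Tumor foci (25,000 cells) were seeded onto organotypic brain slice cultures 2 h after slicing, two per slice; one day later six drug concentrations were added to the medium or X-ray was applied. Bioluminescence was read 3 days after treatment, normalized to day-one fluorescence and to untreated controls.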

[3] = test system: U373KO (RAD18 knockout of U373WT via CRISPR); experiment: Drug screening of U373KO tumor foci on OBSCs; settings: U373 KO on OBSCs
Outline: as §1

[4] = test system: PDIPG (low-passage pediatric patient-derived line); experiment: Drug screening of PDIPG tumor foci on OBSCs
Outline: as §1

[5] = test system: GBM8 (high-passage patient-derived GBM line); experiment: Drug screening of GBM8 tumor foci on OBSCs
Outline: as §1

[6] = test system: 7 cell lines (MB231Br, LN229, U373WT, U373KO, GBM8, MS21, PDIPG); experiment: Drug screening on OBSCs, summary over the panel of seven tumor lines
Outline: as §1

[7] = test system: MS21 (low-passage patient-derived GBM line); experiment: Drug screening of MS21 tumor foci on OBSCs
Outline: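 Drug effects on tumor foci grown on brain slices are quantified by bioluminescence three days after treatment, relative to untreated foci and day-one fluorescence. Efficacy versus slice toxicity is combined into a weighted drug sensitivity score.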

[8] = test system: U373WT (wild-type established GBM line); experiment: Drug screening of U373WT tumor foci on OBSCs; settings: U373 WT on OBSCs
Outline: as §1

[9] = test system: PIS patient tumor tissue (intracranial sarcoma); experiment: Drug screening of uncultured patient tumor tissue PIS on OBSCs; settings: Homo sapiens; PIS on OBSCs; dose required to kill 90% of the tumor
Outline: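 Uncultured patient tumour tissue, transduced with mCherry-FLuc lentivirus, engrafted on organotypic brain slice cultures (OBSCs); six drug concentrations or X-ray dosing given one day after seeding, n = 4 foci per concentration. Bioluminescence with luciferin read three days post-treatment, normalised to day one and untreated controls; drug sensitivity score combines weighted therapeutic-window parameters versus OBSC toxicity (−100 to 100).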

[10] = test system: PGBM patient tumor tissue (pediatric GBM); experiment: Drug screening of uncultured patient tumor tissue PGBM on OBSCs; settings: Homo sapiens, PGBM on OBSCs
Experimental: Tumor cells were seeded onto OBSCs 2h after slicing as described above. One day after tumor seeding, six concentrations of each drug were diluted in the media underneath each culture insert, or XRad was applied using an X-Rad 320 Precision X-ray machine (n = 4 tumor foci per concentration; n ≥ 24 tumor foci per drug per cell line). Three days after treatment, the bioluminescence of live tumor cells was measured using an AMI optical imager (Spectral Instruments) and dose-response curves were generated. Tumor survival was normalized to day one tumor fluorescence and compared to an untreated control group.
To engraft onto OBSCs, the cryopreserved/thawed or fresh brain tumor tissue was filtered through a 100 μm cell strainer. Each 50 mg of tissue was transfected with 1mL mcherry-FLuc Lentivirus at 1.5e7 vg/ml with 1μL polybrene for 4h at 37°C. After incubation, the brain tumor tissue was washed with PBS three times to remove the residual virus and reconstituted in PBS with a final volume of 150 μL. Then the tissue solution was engrafted atop OBSCs at ∼0.5 mg tissue in 3 μL of PBS on each hemisphere of the slice. The OBSC engrafted with patient tumor tissue was incubated at 37°C with 5% CO2 and 95% humidity. The BSM was changed after 24h and subsequently every 3 days. Tumor treatment studies were executed as described above for tumor lines. The viability of the patient tissue was measured by an AMI optical imaging system with the addition of 1.5 mg/mL luciferin underneath the culture insert.
Several weighted parameters were factored into an overall drug sensitivity score.
For DSS parameters 1–6, therapeutic windows were calculated by comparing OBSC toxicity and tumor response at the doses where tumor kill passed through the DSS parameter (Table S1 and S3). For DSS parameter 7, the therapeutic window was calculated by comparing the slopes through the tumor EC50 and the OBSC tox EC50. For DSS parameter 8, the therapeutic window was calculated by comparing the areas under tumor kill and OBSC tox curves. Normalized therapeutic window ratios for DSS parameters 1–8 within each drug-tumor-OBSC interaction were calculated in the following manner: within each window, values ranged from +1 to −1, where values approaching +1 signify increasing tumor kill relative to normal tissue toxicity, and values approaching −1 indicate agents where tumors remained highly viable while toxicity to the normal OBSC tissue was elevated. DSS parameters 9–11 were determined based on the behavior of the tumor in response to the drug, as defined above.
All individually weighed parameters were added together to generate the DSS. Overall DSS from 0 to 100 signify increasing efficacy in tumor kill relative to OBSC toxicity, while scores from 0 to −100 describe scenarios in which tumors thrive more effectively than OBSCs for a given treatment. Dose-response values were calculated via linear interpolation of raw data, not from best-fit curve equations.

[11] = area under the dose-response curve, trapezoidal rule
[12] = dose required to kill 10% of the tumor
[13] = dose required to kill 25% of the tumor
[14] = dose required to kill 75% of the tumor
[15] = Homo sapiens, U373 MG, dose required to kill 50% of the tumor
[16] = Homo sapiens, U373 MG, dose required to kill 90% of the tumor
[17] = Homo sapiens, U373 MG, dosed day 1, survival via bioluminescence day 4, linear interpolation

Nc1ncn([C@@H]2O[C@H](CO)[C@@H](O)[C@H]2O)c(=O)n1 [Azacitidine]
EC50 ([1]; Homo sapiens, MB231BR on OBSCs, dose required to kill 50% of the tumor): 208 µM | EC90 ([1]; Homo sapiens, MB231BR on OBSCs, dose required to kill 90% of the tumor): 906 µM | IC50 ([1]; Homo sapiens, MB231Br on OBSCs, dosed day 1, survival via bioluminescence day 4, linear interpolation): 208 µM | Killing at highest dose ([1]; MB231BR on OBSCs): 9.50E-01 fraction of tumor population killed | AUC ([1]; MB231BR on OBSCs, area under the dose-response curve, trapezoidal rule): 3.36E+02 | EC10 ([1]; MB231BR on OBSCs, dose required to kill 10% of the tumor): 4.76 µM | EC25 ([1]; MB231BR on OBSCs, dose required to kill 25% of the tumor): 18.9 µM | EC75 ([1]; MB231BR on OBSCs, dose required to kill 75% of the tumor): 625 µM | Slope ([1]; MB231BR on OBSCs, slope through the EC50): -1.20E-03 | Killing at highest dose [2]: 8.60E-01 fraction of tumor population killed | EC50 ([2]; Homo sapiens, LN-229, dose required to kill 50% of the tumor): 400 µM | EC90 ([2]; Homo sapiens, LN-229, dose required to kill 90% of the tumor): > 10 µM | IC50 ([2]; Homo sapiens, LN-229, dosed day 1, survival via bioluminescence day 4, linear interpolation): 400 µM | AUC [2, 11]: 4.51E+02 | EC10 [2, 12]: 28.9 µM | EC25 [2, 13]: 45.6 µM | EC75 [2, 14]: 817 µM | Slope ([2]; slope through the EC50): -6.00E-04 | EC50 [3, 15]: 158 µM | EC90 [3, 16]: > 10 µM | IC50 [3, 17]: 158 µM | Killing at highest dose [3]: 8.30E-01 fraction of tumor population killed | AUC [3, 11]: 3.39E+02 | EC10 [3, 12]: 23.8 µM | EC25 [3, 13]: 44.5 µM | EC75 [3, 14]: 647 µM | Slope ([3]; slope through the EC50): -1.73E-03 | EC50 ([4]; Homo sapiens): 447 µM | EC90 ([4]; Homo sapiens): > 10 µM | IC50 ([4]; Homo sapiens): 447 µM | Killing at highest dose ([4]; PDIPG on OBSCs): 6.40E-01 fraction of tumor population killed | AUC ([4]; PDIPG on OBSCs, area under the dose-response curve, trapezoidal rule): 5.03E+02 | EC10 ([4]; PDIPG on OBSCs, dose required to kill 10% of the tumor): 3.7 µM | EC25 ([4]; PDIPG on OBSCs, dose required to kill 25% of the tumor): 9.26 µM | Slope ([4]; PDIPG on OBSCs, slope through the EC50): -2.53E-04 | Killing at highest dose ([5]; GBM8 on OBSCs): 1.00E+00 fraction of tumor population killed | AUC ([5]; GBM8 on OBSCs, area under the dose-response curve, trapezoidal rule): 4.08E+01 | EC10 ([5]; GBM8 on OBSCs, dose required to kill 10% of the tumor): 8.33 µM | EC25 ([5]; GBM8 on OBSCs, dose required to kill 25% of the tumor): 18.1 µM | EC75 ([5]; GBM8 on OBSCs, dose required to kill 75% of the tumor): 49.4 µM | Slope ([5]; GBM8 on OBSCs, slope through the EC50): -1.60E-02 | EC50 ([5]; Homo sapiens): 33.8 µM | EC90 ([5]; Homo sapiens): 83.3 µM | IC50 ([5]; Homo sapiens): 34 µM | IC50 ([6]; Homo sapiens, read-out: IC50 values, range over the cell lines): 200 to 400 µM | response / killing over the 7 cell lines ([6]; number of lines responding): 7 of 7 | EC50 ([7]; Homo sapiens): 821 µM | EC90 ([7]; Homo sapiens): > 10 µM | IC50 ([7]; Homo sapiens): 821 µM | Killing at highest dose ([7]; MS21 on OBSCs): 5.50E-01 fraction of tumor population killed | AUC ([7]; MS21 on OBSCs, area under the dose-response curve, trapezoidal rule): 6.06E+02 | EC10 ([7]; MS21 on OBSCs, dose required to kill 10% of the tumor): 31.5 µM | EC25 ([7]; MS21 on OBSCs, dose required to kill 25% of the tumor): 90.9 µM | Slope ([7]; MS21 on OBSCs, slope through the EC50): -2.80E-04 | EC50 [8, 15]: 800 µM | EC90 [8, 16]: > 10 µM | IC50 [8, 17]: 800 µM | Killing at highest dose [8]: 5.40E-01 fraction of tumor population killed | AUC [8, 11]: 5.88E+02 | EC10 [8, 12]: 61.1 µM | EC25 [8, 13]: 81.9 µM | Slope ([8]; slope through the EC50): -2.00E-04 | EC90 [9]: > 10 µM | EC50 ([10]; dose required to kill 50% of the tumor): > 100 µM | EC90 ([10]; dose required to kill 90% of the tumor): > 10 µM
